This is an account of results in BindingDB's records for patent US10227350 (Gilead Sciences, 2019).

The target in this test is Phosphatidylinositol 4,5-bisphosphate 3-kinase catalytic subunit beta isoform (Homo sapiens, UniProt P42338). In words: TR-FRET Assay. As to the method:
Class I PI3K isoforms were expressed and purified as heterodimeric recombinant proteins. All assay reagents and buffers for the TR-FRET assay were purchased from Millipore. […] The compounds were added to the assay solution and incubated for 30 minutes at 25° C.
On the technique in general: Time-resolved FRET reads energy transfer from a long-lived donor to a nearby acceptor.

pIC50: −log10 of the molar value.

Chain of Phosphatidylinositol 4,5-bisphosphate 3-kinase catalytic subunit beta isoform (P42338 whole entry, canonical isoform): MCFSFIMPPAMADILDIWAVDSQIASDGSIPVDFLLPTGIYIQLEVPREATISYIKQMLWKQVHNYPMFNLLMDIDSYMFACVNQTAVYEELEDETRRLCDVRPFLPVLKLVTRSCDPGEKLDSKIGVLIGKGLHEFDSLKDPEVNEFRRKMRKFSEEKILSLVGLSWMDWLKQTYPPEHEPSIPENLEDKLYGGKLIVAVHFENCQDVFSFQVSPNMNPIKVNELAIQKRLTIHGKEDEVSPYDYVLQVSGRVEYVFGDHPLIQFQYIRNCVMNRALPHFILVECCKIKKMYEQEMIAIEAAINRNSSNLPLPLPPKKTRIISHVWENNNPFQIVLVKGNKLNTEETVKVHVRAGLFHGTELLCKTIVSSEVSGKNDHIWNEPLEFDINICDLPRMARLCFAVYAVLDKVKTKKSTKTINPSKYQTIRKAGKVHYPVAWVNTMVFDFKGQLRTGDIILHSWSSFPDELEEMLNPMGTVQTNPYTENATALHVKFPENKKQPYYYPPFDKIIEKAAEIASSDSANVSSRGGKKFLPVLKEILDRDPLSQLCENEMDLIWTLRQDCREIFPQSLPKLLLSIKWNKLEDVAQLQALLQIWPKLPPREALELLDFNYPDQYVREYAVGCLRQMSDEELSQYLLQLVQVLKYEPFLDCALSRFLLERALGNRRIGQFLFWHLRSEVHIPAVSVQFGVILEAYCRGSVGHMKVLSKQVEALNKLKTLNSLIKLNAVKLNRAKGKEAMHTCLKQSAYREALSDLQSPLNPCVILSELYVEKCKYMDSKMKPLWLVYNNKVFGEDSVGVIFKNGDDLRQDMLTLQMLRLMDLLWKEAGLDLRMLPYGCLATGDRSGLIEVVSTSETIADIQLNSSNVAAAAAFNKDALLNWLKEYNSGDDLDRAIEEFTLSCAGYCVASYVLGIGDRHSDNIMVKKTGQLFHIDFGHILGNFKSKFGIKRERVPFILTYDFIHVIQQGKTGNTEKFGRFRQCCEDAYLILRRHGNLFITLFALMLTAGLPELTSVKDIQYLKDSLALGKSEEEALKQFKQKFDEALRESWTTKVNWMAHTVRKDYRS

Turning to `CCCc1nc2c(-c3nnc[nH]3)cc(-c3ccnc(N)c3F)cc2n1-c1ccnc2c(Cl)ccc(F)c12` [US10227350, Compound 84], the pIC50 (commonly −log10 of the IC50, conventionally taken in molar units) is 8.40. The molecule `Cc1cc(-c2cc(-c3nnc[nH]3)c3nc(C)n(-c4ccnc5c(Cl)cccc45)c3c2)ccn1` [US10227350, Compound 40] had a pIC50 of 8.30.
